According to patent US12410163B2, “Compounds as GLP-IR agonists” (Terns Pharmaceuticals, Inc., priority 2022, dated 2025):

Assays:
human GLP-1R receptor = target: T1, human GLP-1R receptor (Homo sapiens, UniProt P43220); assay: GLP-1R low expression cell assay (cAMP TR-FRET, CHO-K1_hGLP-1Rlow_clone10); type: cell-based; settings: CHO-K1_hGLP-1Rlow_clone10 cells, percent activation relative to control GLP-1 peptide
T1 construct: expressed in transfected cells
Protocol: Stable cell lines expressing high and low GLP-1R surface expression are generated in CHO-K1 cells transfected (Fugene 6) with a puromycin selectable DNA plasmid encoding human GLP-1R receptor (accession number: NM_002062.5) under control of an EF1A promoter. Transfected cells are seeded into 24-well plates (9,000 cells/well) containing complete medium and incubated in a humidified incubator at 37° C. with 5% carbon dioxide. After overnight incubation, medium is replaced with complete medium supplemented with puromycin (6 μg/mL) and refreshed every 2-3 days to select for stably transfected cells. Individual pools of selected cells are expanded prior to analysis for responsiveness to GLP-1 control peptide using a TR-FRET assay to detect cAMP (LANCE Ultra cAMP Assay, Perkin Elmer). Briefly, cells are collected in Versene solution, plated in 384-well plates (1,000 cells/well) and combined with serially diluted GLP-1R control peptide (10 nL) using an acoustic dispenser (ECHO). Plates are incubated for 30 minutes at 25° C. prior to the addition of EU-cAMP tracer (5 μL) and Ulight-anti-cAMP (5 μL) reagents to each well, followed by 15 minutes incubation at 25° C. TR-FRET signal is detected using an EnVision Multimode Plate Reader (excitation=320 nm; emission=615 and 655 nm). Dose-response curves are used to generate EC50 values as a measure of responsiveness to the GLP-1R control peptide. Selected cell lines are monitored for responsiveness over multiple passages to ensure stability. […] Briefly, GLP-1R expression is analyzed by flow cytometry using a fluorescein-labeled Exendin-4 peptide fluorescent probe (FLEX). Cells are harvested in Versene solution and washed 3-times with PBS+0.5% BSA before incubation with FLEX reagent (10 μM) for 2 hours at room temperature. After incubation, cells are washed 3-times in PBS+0.5% BSA before final resuspension in PBS prior to analysis by flow cytometry to measure FLEX mean fluorescence intensity (MFI) as a measure of GLP-1R expression on the cell surface.
For compound testing in the CHO-K1_hGLP-1Rlow_clone10 cell lines, cells are seeded in 384-well plates (1,000 cells/well). Test compounds are serially diluted in DMSO (10-point, 3-fold dilution), added to wells using an ECHO dispenser (10 nL/well) and plates are centrifuged for 1 min and agitated for 2 min at room temperature prior to 30-minute incubation at 25° C. After incubation, Eu-cAMP (5 μL) and Ulight-anti-cAMP (5 μL) reagents are added to each well, followed by centrifugation for 1 minute, agitation for 2 minutes at room temperature, and final incubation of the plates at 25° C. for 15 minutes. Plates are read using an EnVision microplate reader (excitation=320 nm; emission=615 and 655 nm). Dose-response curves are generated from duplicate wells based on percent activation calculated relative to a control GLP-1 peptide agonist that was run in parallel. EC50 values are determined by fitting percent activation as a function of compound concentration using the Hill equation (XLfit).
Stable cell lines expressing high and low GLP-1R surface expression were generated in CHO-K1 cells transfected (Fugene 6) with a puromycin selectable DNA plasmid encoding human GLP-1R receptor (accession number: NM_002062.5) under control of an EF1A promoter. Transfected cells were seeded into 24-well plates (9,000 cells/well) containing complete medium and incubated in a humidified incubator at 37° C. with 5% carbon dioxide. After overnight incubation, medium was replaced with complete medium supplemented with puromycin (6 μg/mL) and refreshed every 2-3 days to select for stably transfected cells. Individual pools of selected cells were expanded prior to analysis for responsiveness to GLP-1 control peptide using a TR-FRET assay to detect cAMP (LANCE Ultra cAMP Assay, Perkin Elmer).

[1] = Passive permeability and efflux ratio (Caco-2); type: in vitro ADME; settings: human
Protocol: Caco-2 cells (clone C2BBe1) are obtained, e.g., from American Type Culture Collection (Manassas, VA). Cell monolayers are grown to confluence on collagen-coated, microporous membranes in 12-well assay plates. The permeability assay buffer is Hanks' balanced salt solution containing 10 mM HEPES and 15 mM glucose at a pH of 7.4. The buffer in the receiver chamber also contains 1% bovine serum albumin. The dosing solution concentration is 5 μM of test article in the assay buffer. Cell monolayers are dosed on the apical side (A-to-B) or basolateral side (B-to-A) and incubated at 37° C. with 5% CO2 in a humidified incubator. Samples are taken from the donor and receiver chambers at 120 minutes. Each determination is performed in duplicate. The flux of lucifer yellow is also measured post-experimentally for each monolayer to ensure no damage is inflicted to the cell monolayers during the flux period. All samples are assayed by LC-MS/MS using electrospray ionization. The apparent permeability (Papp) and percent recovery were calculated as follows: Papp=(dCr/dt)×Vr/(A×CA) (1) Percent Recovery=100×((Vr×Cr^final)+(Vd×Cd^final))/(Vd×CN) (2), where, dCr/dt is the slope of the cumulative receiver concentration versus time in μM s^−1; Vr is the volume of the receiver compartment in cm^3; Vd is the volume of the donor compartment in cm^3; A is the area of the insert (1.13 cm^2 for 12-well); CA is the average of the nominal dosing concentration and the measured 120-minute donor concentration in μM; CN is the nominal concentration of the dosing solution in μM; Cr^final is the cumulative receiver concentration in μM at the end of the incubation period; Cd^final is the concentration of the donor in μM at the end of the incubation period. Efflux ratio (ER) is defined as Papp (B-to-A)/Papp (A-to-B). Rat Pharmacokinetics
Caco-2 cells (clone C2BBe1) were obtained from American Type Culture Collection (Manassas, VA). Cell monolayers were grown to confluence on collagen-coated, microporous membranes in 12-well assay plates. Details of the plates and their certification are shown below. The permeability assay buffer was Hanks' balanced salt solution containing 10 mM HEPES and 15 mM glucose at a pH of 7.4. The buffer in the receiver chamber also contained 1% bovine serum albumin. The dosing solution concentration was 5 μM of test article in the assay buffer. Cell monolayers were dosed on the apical side (A-to-B) or basolateral side (B-to-A) and incubated at 37° C. with 5% CO2 in a humidified incubator. Samples were taken from the donor and receiver chambers at 120 minutes. Each determination was performed in duplicate. The flux of lucifer yellow was also measured post-experimentally for each monolayer to ensure no damage was inflicted to the cell monolayers during the flux period. All samples were assayed by LC-MS/MS using electrospray ionization. The apparent permeability (Papp) and percent recovery were calculated as follows: Papp=(dCr/dt)×Vr/(A×CA) (1) Percent Recovery=100×((Vr×Cr^final)+(Vd×Cd^final))/(Vd×CN) (2), where, dCr/dt is the slope of the cumulative receiver concentration versus time in μM s^−1; Vr is the volume of the receiver compartment in cm^3; Vd is the volume of the donor compartment in cm^3; A is the area of the insert (1.13 cm^2 for 12-well); CA is the average of the nominal dosing concentration and the measured 120-minute donor concentration in μM; CN is the nominal concentration of the dosing solution in μM; Cr^final is the cumulative receiver concentration in μM at the end of the incubation period; Cd^final is the concentration of the donor in μM at the end of the incubation period. Efflux ratio (ER) is defined as Papp (B-to-A)/Papp (A-to-B).

Rat pharmacokinetics [2] = type: in vivo; design: AUC: concentration or dose not given beside the values; settings: male Sprague-Dawley rats, plasma, route not given; for half-life: read-out: Rat T1/2 (converted)
Protocol: Intravenous dosing: Compounds were formulated at 0.5 mg/mL in a solution comprising 5% polyethylene glycol 400 and 95% (12% (w/v) sulfobutyl-β-cyclodextrin in water) (v/v). Formulated compounds were sterile filtered through a 0.22 micron filter before dosing. Compounds were administered to male, 7-11-week-old Sprague-Dawley rats by jugular vein cannula infusion over 30 minutes at a dose of 1 mg/kg. […]
Sample collection: Blood collections of about 0.2 mL per time point were performed from jugular vein or other suitable site of each animal, into pre-chilled commercial EDTA-K2 tubes and placed on wet ice until centrifugation. Blood samples were processed for plasma by centrifugation at approximately 4° C., 3,200 g for 10 min. Plasma was collected and transferred into pre-labeled 96 well plate or polypropylene tubes, quick frozen over dry ice and kept at −60° C. or lower until LC-MS/MS analysis.
Data analysis: Plasma concentration versus time data was plotted in graph and analyzed by non-compartmental approaches using the Phoenix WinNonlin 6.3 software program. Related PK parameters were calculated according to dosing route, e.g., CL, Vdss and C0 for intravenous administration, Cmax, Tmax or % F for extravascular administration, and T1/2, AUC(0-t), AUC(0-inf), MRT(0-t), MRT(0-inf) for all routes.

Rat pharmacokinetics [3] = type: in vivo; settings: male Sprague-Dawley rats, plasma, route not stated in table (IV or oral gavage 10 mL/kg of 0.3 or 0.6 mg/mL)

T1 sequence (P43220 24-463): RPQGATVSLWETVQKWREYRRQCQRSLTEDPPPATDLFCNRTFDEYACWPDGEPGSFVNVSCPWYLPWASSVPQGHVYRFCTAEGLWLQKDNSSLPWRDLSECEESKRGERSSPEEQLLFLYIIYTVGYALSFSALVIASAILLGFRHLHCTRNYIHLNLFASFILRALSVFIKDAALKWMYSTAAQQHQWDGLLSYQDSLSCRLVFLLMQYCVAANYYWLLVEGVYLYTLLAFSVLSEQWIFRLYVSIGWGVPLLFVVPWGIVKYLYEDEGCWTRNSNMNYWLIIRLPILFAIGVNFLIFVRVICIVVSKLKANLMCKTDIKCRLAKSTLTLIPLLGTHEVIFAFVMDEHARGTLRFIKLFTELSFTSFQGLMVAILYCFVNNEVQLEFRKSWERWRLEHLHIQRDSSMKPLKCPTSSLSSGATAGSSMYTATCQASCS

Row | EC50 (human GLP-1R receptor) | efflux ratio at 120 min, 5 μM ([1]; pH 7.4, Caco-2, efflux ratio = Papp (B-to-A)/Papp (A-to-B), read-out: ER) | Papp A→B at 120 min, 5 μM ([1]; Caco-2, 5 μM, pH 7.4, 120 minutes) | AUC (Rat pharmacokinetics [2]) | half-life (Rat pharmacokinetics [2]) | Cmax (Rat pharmacokinetics [3]) | SMILES
1 | < 5 nM | 1.82 | 199 nm/s | – | – | – | CC1(c2ccc(C#N)cc2F)Oc2cccc(N3CCN(Cc4nc5ccc(C(=O)O)cc5n4Cc4cncs4)C4CC43)c2O1 (centres unmarked) [Compound 34, 2-((5-(2-(4-Cyano-2-fluorophenyl)-2-methylbenzo[d][1,3]dioxol-4-yl)-2,5-diazabicyclo[4.1.0]heptan-2-yl)methyl)-1-(thiazol-5-ylmethyl)-1H-benzo[d]imidazole-6-carboxylic Acid]
2 | 5 to 50 nM | – | – | 0.0207 ± 0.0126 µg·h/mL | 1.8 h | 0.0193 ± 0.0027 µg/mL | C[C@]1(c2ccc(C#N)cc2F)Oc2cccc(N3CCN(Cc4nc5ccc(C(=O)O)cc5n4Cc4cncs4)[C@H]4C[C@H]43)c2O1 [Compound 36, 2-((5-(2-(4-Cyano-2-fluorophenyl)-2-methylbenzo[d][1,3]dioxol-4-yl)-2,5-diazabicyclo[4.1.0]heptan-2-yl)methyl)-1-(thiazol-5-ylmethyl)-1H-benzo[d]imidazole-6-carboxylic Acid]
3 | < 5 nM | – | – | 0.0158 ± 0.0076 µg·h/mL | – | 0.02 ± 0.0077 µg/mL | C[C@@]1(c2ccc(C#N)cc2F)Oc2cccc(N3CCN(Cc4nc5ccc(C(=O)O)cc5n4Cc4cncs4)[C@@H]4C[C@@H]43)c2O1 [Compound 37, 2-((5-(2-(4-Cyano-2-fluorophenyl)-2-methylbenzo[d][1,3]dioxol-4-yl)-2,5-diazabicyclo[4.1.0]heptan-2-yl)methyl)-1-(thiazol-5-ylmethyl)-1H-benzo[d]imidazole-6-carboxylic Acid]
4 | > 100 nM | – | – | 0.109 ± 0.0215 µg·h/mL | 1.6 h | 0.0583 ± 0.00974 µg/mL | C[C@]1(c2ccc(C#N)cc2F)Oc2cccc(N3CCN(Cc4nc5ccc(C(=O)O)cc5n4Cc4cncs4)[C@@H]4C[C@@H]43)c2O1 [Compound 38, 2-((5-(2-(4-Cyano-2-fluorophenyl)-2-methylbenzo[d][1,3]dioxol-4-yl)-2,5-diazabicyclo[4.1.0]heptan-2-yl)methyl)-1-(thiazol-5-ylmethyl)-1H-benzo[d]imidazole-6-carboxylic Acid]
